Reference: ChEMBL document CHEMBL3525982, “Metabolism and pharmacokinetics of indacaterol in humans” (Drug Metab Dispos, 2012)

Tests used:
Serum [1] = experiment: Drug level in healthy human serum treated with [14C]indacaterol at 800 ug, po as single dose at 2 hrs by HPLC analysis; type: ADME, organism-based; settings: in vivo
Serum [2] = experiment: Drug level in healthy human serum treated with [14C]indacaterol at 800 ug, po as single dose at 2 hrs by HPLC analysis relative to total radioactivity; type: ADME, organism-based; settings: in vivo
Serum [3] = experiment: AUC (0 to 24 hrs) in healthy human serum treated with [14C]indacaterol at 800 ug, po as single dose by HPLC analysis; type: ADME, organism-based; set-up: time < 24 hr, dose 800 ug, route oral; settings: in vivo
Serum [4] = experiment: AUC (0 to 24 hrs) in healthy human serum treated with [14C]indacaterol at 800 ug, po as single dose by HPLC analysis relative to total radioactivity; type: ADME, organism-based; settings: in vivo
[5] = Drug recovery in healthy human urine treated with [14C]indacaterol at 800 ug, po as single dose after 168 hrs postdose by liquid scintillation counting; type: ADME, organism-based; settings: in vivo
[6] = Drug recovery in healthy human feces treated with [14C]indacaterol at 800 ug, po as single dose after 168 hrs postdose by liquid scintillation counting; type: ADME, organism-based; settings: in vivo
Serum [7] = experiment: Drug metabolism in healthy human serum treated with [14C]indacaterol at 800 ug, po as single dose by HPLC analysis; type: ADME, organism-based; settings: in vivo
[8] = Cmax in healthy human at 800 ug, po as single dose by LC-MS/MS analysis; type: ADME, organism-based; set-up: dose 800 ug, route oral; settings: in vivo
[9] = Tmax in healthy human at 800 ug, po as single dose by LC-MS/MS analysis; type: ADME, organism-based; settings: in vivo
[10] = AUC (0 to 12 hrs) in healthy human at 800 ug, po as single dose by LC-MS/MS analysis; type: ADME, organism-based; set-up: dose 800 ug, time < 12 hr, route oral; settings: plasma
[11] = Drug recovery in healthy human feces at 800 ug, po as single dose measured after 168 hrs postdose by liquid scintillation counting; type: ADME, organism-based; settings: in vivo
[12] = Drug recovery in healthy human urine at 800 ug, po as single dose after 168 hrs postdose by liquid scintillation counting; type: ADME, organism-based; settings: in vivo
[13] = Drug recovery in healthy human feces at 800 ug, po as single dose after 168 hrs postdose by liquid scintillation counting; type: ADME, organism-based; settings: in vivo
Homo sapiens [14] = experiment: AUC (0 to last) in healthy human assessed as total radioactivity at 800 ug, po as single dose by LC-MS/MS analysis; type: ADME, organism-based, Plasma; settings: in vivo
Serum [15] = experiment: Drug level in healthy human serum at 800 ug, po as single dose at 2 hrs by HPLC analysis; type: ADME, organism-based; settings: in vivo
Serum [16] = experiment: Drug level in healthy human serum at 800 ug, po as single dose at 2 hrs by HPLC analysis relative to total radioactivity; type: ADME, organism-based; settings: in vivo
Serum [17] = experiment: AUC (0 to 24 hrs) in healthy human serum at 800 ug, po as single dose by HPLC analysis; type: ADME, organism-based; set-up: time < 24 hr, dose 800 ug, route oral; settings: in vivo
Serum [18] = experiment: AUC (0 to 24 hrs) in healthy human serum at 800 ug, po as single dose by HPLC analysis relative to total radioactivity; type: ADME, organism-based; settings: in vivo
Serum [19] = experiment: Drug metabolism in healthy human serum assessed as (2S,3S,4S,5R,6R)-6-((5,6-diethyl-2,3-dihydro-1H-inden-2-yl)((S)-2-hydroxy-2-(8-hydroxy-2-oxo-1,2-dihydroquinolin-5-yl)ethyl)amino)-3,4,5-trihydroxytetrahydro-2H-pyran-2-carboxylic acid formation at 800 ug, po as single dose by HPLC analysis; type: ADME, organism-based; settings: in vivo
Serum [20] = experiment: Drug metabolism in healthy human serum assessed as 2-(5,6-diethyl-2,3-dihydro-1H-inden-2-ylamino)acetic acid formation at 800 ug, po as single dose by HPLC analysis; type: ADME, organism-based; settings: in vivo
Serum [21] = experiment: Drug metabolism in healthy human serum assessed as 5,6-diethyl-2,3-dihydro-1H-inden-2-amine formation at 800 ug, po as single dose by HPLC analysis; type: ADME, organism-based; settings: in vivo
Homo sapiens [22] = experiment: Cmax in healthy human assessed as total radioactivity at 800 ug, po as single dose by LC-MS/MS analysis; type: ADME, organism-based; set-up: dose 800 ug, route oral; settings: in vivo
Homo sapiens [23] = experiment: Tmax in healthy human assessed as total radioactivity at 800 ug, po as single dose by LC-MS/MS analysis; type: ADME, organism-based; settings: in vivo
[24] = Drug recovery in healthy human urine assessed as total radioactivity at 800 ug, po as single dose after 168 hrs postdose by liquid scintillation counting; type: ADME, organism-based; settings: in vivo
[25] = Drug recovery in healthy human feces assessed as total radioactivity at 800 ug, po as single dose after 168 hrs postdose by liquid scintillation counting; type: ADME, organism-based; settings: in vivo

Row | Compound | Drug uptake (Serum [1]) | Drug uptake (Serum [2]) | AUC (Serum [3]) | Drug uptake (Serum [4]) | Drug recovery [5] | Drug recovery [6] | Drug metabolism (Serum [7]) | Drug recovery [11] | also measured
1 | CCc1cc2c(cc1C(C)O)CC(NC[C@H](O)c1ccc(O[C@@H]3O[C@H](C(=O)O)[C@@H](O)[C@H](O)[C@H]3O)c3[nH]c(=O)ccc13)C2 (stereo partly drawn) | 0.12 ngequiv/ml | 9.31% | 0.82 ng.Eq.hr/ml | 5.78% | 0.83% | 0% |  |  | 
2 | CCc1cc2c(cc1CC)CC(NC[C@H](O)c1ccc(O[C@@H]3O[C@H](C(=O)O)[C@@H](O)[C@H](O)[C@H]3O)c3[nH]c(=O)ccc13)C2 | 0.1 ngequiv/ml | 7.42% | 0.6 ng.Eq.hr/ml | 4.22% | 0.53% | 0% |  |  | 
3 | CCc1cc2c(cc1CC)CC(NCC(=O)O)C2 |  |  |  |  | 0.97% | 0% | metabolite_detected |  | 
4 | CCc1cc2c(cc1CC)CC(NC[C@H](O)c1ccc(O)c3[nH]c(=O)ccc13)C2.O=C(O)/C=C\C(=O)O [INDACATEROL MALEATE] |  |  |  |  |  |  |  | 54% | Cmax [8]: 0.47 ng/mL; Tmax [9]: 1.75 h; AUC(0-t) at 12 h [10]: 1.81 ng·h/mL; Drug recovery [12]: 0.34%; Drug recovery [13]: 54.42%
5 | CCc1cc2c(cc1C(C)O)CC(NC[C@H](O)c1ccc(O)c3[nH]c(=O)ccc13)C2 (stereo in doubt; P26.9) | 0.18 ngequiv/ml | 13.2% | 1.8 ng.Eq.hr/ml | 12.4% | 1.24% | 17.44% |  | 17% | 
6 | CCc1cc2c(cc1CC)CC(N)C2 |  |  |  |  | 0% | 1.7% | metabolite_detected | <= 6% | 
7 | CCc1cc2c(cc1CC)CC(N(C[C@H](O)c1ccc(O)c3[nH]c(=O)ccc13)[C@@H]1O[C@H](C(=O)O)[C@@H](O)[C@H](O)[C@H]1O)C2 |  |  |  |  |  |  | metabolite_detected |  | 
8 | CCc1cc2c(cc1C(C)O)CC(NC[C@H](O)c1ccc(O)c3[nH]c(=O)ccc13)C2 (stereo in doubt; P30.3) |  |  |  |  | 0.31% | 6.33% |  | <= 6% | 
9 | CCc1cc2c(cc1[14CH2]C)CC(NC[C@H](O)c1ccc(O)c3[nH]c(=O)ccc13)C2 (stereo partly drawn) |  |  |  |  |  |  |  |  | AUClast (Homo sapiens [14]): 27.2 ng.Eq.hr/ml; Drug uptake (Serum [15]): 0.42 ngequiv/ml; Drug uptake (Serum [16]): 31.4%; AUC (Serum [17]): 4.58 ng.Eq.hr/ml; Drug uptake (Serum [18]): 32.5%; Drug metabolism (Serum [19]): metabolite_detected; Drug metabolism (Serum [20]): metabolite_detected; Drug metabolism (Serum [21]): metabolite_detected; Cmax (Homo sapiens [22]): 1.4 ng.Eq/ml; Tmax (Homo sapiens [23]): 2.5 h; Drug recovery [24]: 9.7%; Drug recovery [25]: 85.3%
